Data as given in ChEMBL document CHEMBL4680377, “Discovery of a Novel Series of Pyridone-Based EP3 Antagonists for the Treatment of Type 2 Diabetes” (ACS Med Chem Lett, 2021).
Converted amounts (≈) assume the structure as drawn.

Tests used:
[1] = Metabolic stability in rat liver microsomes assessed as intrinsic clearance half life; format: ADME, Microsome
[2] = Metabolic stability in human liver microsomes assessed as intrinsic clearance half life; format: ADME, Microsome
[3] = Kinetic solubility of compound at pH 2; format: physicochemical; conditions: buffer, read-out: Kinetic_solubility
[4] = Kinetic solubility of compound in PBS buffer; format: physicochemical; conditions: read-out: Kinetic_solubility

Row | SMILES | half-life [1] | half-life [2] | solubility kinetic [3] | solubility kinetic [4]
1 | CCc1cccc2ccc(-c3ccc(C(/C=C4\OC(=O)NC4=O)(CC)CC)c(=O)[nH]3)cc12 | 106 min | 10.7 min | – | –
2 | CC(C)[C@@H](/C=C1\OC(=O)NC1=O)c1ccc(-c2ccc3cccc(F)c3c2)[nH]c1=O | > 180 min | > 180 min | 4.62 µM (≈ 1.88 µg/mL) | 26.4 µM (≈ 10.7 µg/mL)
3 | CC(C)(/C=C1\OC(=O)NC1=O)c1ccc(-c2ccc3cccc(F)c3c2)[nH]c1=O | > 180 min | 114 min | 1.66 µM (≈ 0.651 µg/mL) | 36.1 µM (≈ 14.2 µg/mL)
4 | CCN1CCOc2ccc(-c3ccc(C(/C=C4\OC(=O)NC4=O)(CC)CC)c(=O)[nH]3)cc21 | 90.4 min | 58.3 min | 21 µM (≈ 9.19 µg/mL) | 24.1 µM (≈ 10.5 µg/mL)
5 | O=C1NC(=O)/C(=C/C(c2ccc(-c3ccc4cccc(F)c4c3)[nH]c2=O)C2CCCC2)O1 (configuration not stated) | > 180 min | 72.7 min | – | –
6 | CCC(/C=C1\OC(=O)NC1=O)(CC)c1ccc(-c2ccc3cccc(C(F)(F)F)c3c2)[nH]c1=O | 65.6 min | 21.2 min | – | –
7 | O=C1NC(=O)/C(=C/C(c2ccccc2)c2ccc(-c3ccc4cccc(F)c4c3)[nH]c2=O)O1 (configuration not stated) | > 180 min | 126 min | 15.4 µM (≈ 6.78 µg/mL) | 32.8 µM (≈ 14.4 µg/mL)
8 | O=C1NC(=O)/C(=C/C2(c3ccc(-c4ccc5cccc(F)c5c4)[nH]c3=O)CCCC2)O1 | > 180 min | > 180 min | 2.55 µM (≈ 1.07 µg/mL) | 24.5 µM (≈ 10.3 µg/mL)
9 | O=C1NC(=O)/C(=C/C(Cc2ccccc2)c2ccc(-c3ccc4cccc(F)c4c3)[nH]c2=O)O1 (configuration not stated) | 177 min | 77.8 min | 0.9 µM (≈ 0.409 µg/mL) | 9.1 µM (≈ 4.14 µg/mL)
10 | CC(C)C(c1ccc(-c2ccc3cccc(F)c3c2)[nH]c1=O)C1NC(=O)NC1=O (configuration not stated) | 8.7 min | 34.7 min | 5.8 µM (≈ 2.28 µg/mL) | 10.6 µM (≈ 4.17 µg/mL)
11 | O=C1NC(=O)/C(=C/C(c2ccc(-c3ccc4cccc(F)c4c3)[nH]c2=O)C2CCCCC2)O1 (configuration not stated) | 143 min | 65.6 min | – | –
12 | CC(C)C(c1ccc(-c2ccc3cccc(F)c3c2)[nH]c1=O)C1C(=O)NC(=O)N1C (configuration not stated) | 15.8 min | 22.5 min | 13.6 µM (≈ 5.54 µg/mL) | 17.9 µM (≈ 7.29 µg/mL)
13 | CCC(CC)C(/C=C1\OC(=O)NC1=O)c1ccc(-c2ccc3cccc(F)c3c2)[nH]c1=O (configuration not stated) | > 180 min | > 180 min | 3.68 µM (≈ 1.6 µg/mL) | 33.7 µM (≈ 14.6 µg/mL)
14 | CC(C)C(/C=C1\OC(=O)NC1=O)c1cc(Cl)c(-c2ccc3cccc(F)c3c2)[nH]c1=O (configuration not stated) | > 180 min | > 180 min | 3.2 µM (≈ 1.41 µg/mL) | 21.5 µM (≈ 9.48 µg/mL)
15 | Cc1cc(C(/C=C2\OC(=O)NC2=O)C(C)C)c(=O)[nH]c1-c1ccc2cccc(F)c2c1 (configuration not stated) | > 180 min | > 180 min | 39.4 µM (≈ 16.6 µg/mL) | 35.7 µM (≈ 15 µg/mL)
16 | O=C1NC(=O)/C(=C/C(c2ccc(-c3ccc4cccc(F)c4c3)[nH]c2=O)C2CC2)O1 (configuration not stated) | > 180 min | 119 min | 3.85 µM (≈ 1.56 µg/mL) | 30.8 µM (≈ 12.5 µg/mL)
17 | CC(C)[C@H](/C=C1\OC(=O)NC1=O)c1ccc(-c2ccc3cccc(F)c3c2)[nH]c1=O | > 180 min | > 180 min | 10.8 µM (≈ 4.39 µg/mL) | 25.4 µM (≈ 10.3 µg/mL)
18 | CC(C)/C(=C1\NC(=O)OC1=O)c1ccc(-c2ccc3cccc(F)c3c2)[nH]c1=O | > 180 min | > 180 min | – | –
